Laboratory results published in ChEMBL document CHEMBL1141502, “Synthesis of hybrid acetogenins, alpha,beta-unsaturated-gamma-lactone-free nitrogen-containing heterocyclic analogues, and their cytotoxicity against human cancer cell lines” (2008).

Columns and labels:
Assay type in all cases: functional
[1] = test system: SF-539; test: Antiproliferative activity against human SF539 cells by sulforhodamine B assay relative to control
[2] = test system: ACHN; test: Antiproliferative activity against human ACHN cells by sulforhodamine B assay relative to control
[3] = test system: SNB-78; test: Antiproliferative activity against human SNB78 cells by sulforhodamine B assay relative to control
[4] = test system: MKN-74; test: Antiproliferative activity against human MKN74 cells by sulforhodamine B assay relative to control
[5] = test system: A549; test: Antiproliferative activity against human A549 cells by sulforhodamine B assay relative to control
[6] = test system: U-251; test: Antiproliferative activity against human U251 cells by sulforhodamine B assay relative to control
[7] = test system: DMS-273; test: Antiproliferative activity against human DMS273 cells by sulforhodamine B assay relative to control
[8] = Antiproliferative activity against human OVACR8 cells by sulforhodamine B assay relative to control
[9] = Antiproliferative activity against human HBC5 cells by sulforhodamine B assay relative to control
[10] = test system: PC-3; test: Antiproliferative activity against human PC3 cells by sulforhodamine B assay relative to control
[11] = Antiproliferative activity against human OVACR4 cells by sulforhodamine B assay relative to control
[12] = test system: MKN-7; test: Antiproliferative activity against human MKN7 cells by sulforhodamine B assay relative to control
[13] = Antiproliferative activity against human MKN1 cells by sulforhodamine B assay relative to control; details: MKN-1
[14] = test system: HCT-116; test: Antiproliferative activity against human HCT116 cells by sulforhodamine B assay relative to control
[15] = test system: SNB-75; test: Antiproliferative activity against human SNB75 cells by sulforhodamine B assay relative to control
[16] = test system: LOX IMVI; test: Antiproliferative activity against human LOX IMVI cells by sulforhodamine B assay relative to control
[17] = test system: MKN-45; test: Antiproliferative activity against human MKN45 cells by sulforhodamine B assay relative to control
[18] = test system: MDA-MB-231; test: Antiproliferative activity against human MDA-MB-231 cells by sulforhodamine B assay relative to control
[19] = test system: SF-295; test: Antiproliferative activity against human SF295 cells by sulforhodamine B assay relative to control
[20] = test system: NCI-H226; test: Antiproliferative activity against human NCI-H226 cells by sulforhodamine B assay relative to control
[21] = test system: MCF7; test: Antiproliferative activity against human MCF7 cells by sulforhodamine B assay relative to control
[22] = test system: SF-268; test: Antiproliferative activity against human SF268 cell by sulforhodamine B assay relative to control
[23] = Antiproliferative activity against human BSY1 cells by sulforhodamine B assay relative to control; details: BSY-1
[24] = test system: HCC 2998; test: Antiproliferative activity against human HCC2998 cells by sulforhodamine B assay relative to control
[25] = test system: DMS-114; test: Antiproliferative activity against human DMS114 cells by sulforhodamine B assay relative to control
[26] = Antiproliferative activity against human HBC4 cells by sulforhodamine B assay relative to control
[27] = test system: St-4; test: Antiproliferative activity against human St4 cells by sulforhodamine B assay relative to control
[28] = test system: NCI-H460; test: Antiproliferative activity against human NCI-H460 cells by sulforhodamine B assay relative to control
[29] = test system: DU-145; test: Antiproliferative activity against human DU145 cells by sulforhodamine B assay relative to control
[30] = Antiproliferative activity against human OVACR3 cells by sulforhodamine B assay relative to control
[31] = Antiproliferative activity against human RXF631L cells by sulforhodamine B assay relative to control; details: RXF 631
[32] = test system: NCI-H522; test: Antiproliferative activity against human NCI-H522 cells by sulforhodamine B assay relative to control
[33] = test system: MKN-28; test: Antiproliferative activity against human MKN28 cells by sulforhodamine B assay relative to control
[34] = test system: HT-29; test: Antiproliferative activity against human HT29 cells by sulforhodamine B assay relative to control
[35] = test system: SK-OV-3; test: Antiproliferative activity against human SKOV3 cells by sulforhodamine B assay relative to control
[36] = test system: HCT-15; test: Antiproliferative activity against human HCT15 cells by sulforhodamine B assay relative to control
[37] = test system: NCI-H23; test: Antiproliferative activity against human NCI-H23 cells by sulforhodamine B assay relative to control
[38] = Antiproliferative activity against human OVACR5 cells by sulforhodamine B assay relative to control
[39] = test system: KM12; test: Antiproliferative activity against human KM12 cells by sulforhodamine B assay relative to control

Row | Structure (SMILES) | GI50 [2] [µM] | GI50 [4] [µM] | GI50 [5] [µM] | GI50 [6] [µM] | GI50 [10] [µM] | GI50 [12] [µM] | GI50 [14] [µM] | GI50 [17] [µM] | GI50 [18] [µM] | GI50 [20] [µM] | GI50 [1] [µM] | GI50 [3] [µM] | GI50 [7] [µM] | GI50 [8] [µM] | GI50 [9] [µM] | GI50 [11] [µM] | GI50 [13] [µM] | GI50 [15] [µM] | GI50 [16] [µM] | GI50 [19] [µM] | further results
1 | CCCCCCCCCCCC[C@@H](O)[C@H]1CC[C@H]([C@H](O)CCCCCCCCCCCCc2cnn(C)c2)O1 | > 100 | > 100 | > 100 | > 100 | > 100 | 5.4 | 70 | > 100 | > 100 | 56 | 37 | 81 | > 100 | > 100 | > 100 | > 100 | > 100 | 23 | 9.5 | 24 | GI50 [21]: > 100 µM; GI50 [22]: > 100 µM; GI50 [23]: > 100 µM; GI50 [24]: > 100 µM; GI50 [25]: 2.1 µM; GI50 [26]: > 100 µM; GI50 [27]: > 100 µM; GI50 [28]: > 100 µM; GI50 [29]: > 100 µM; GI50 [30]: > 100 µM; GI50 [31]: > 100 µM; GI50 [32]: 12 µM; GI50 [33]: 19 µM; GI50 [34]: > 100 µM; GI50 [35]: > 100 µM; GI50 [36]: > 100 µM; GI50 [37]: 13 µM; GI50 [38]: > 100 µM; GI50 [39]: > 100 µM
2 | CCCCCCCCCCCC[C@@H](O)[C@H]1CC[C@H]([C@H](O)CCCCCCCCCCCCc2ncccn2)O1 | > 100 | 69 | > 100 | > 100 | > 68 | 27 | > 100 | > 100 | > 100 | 30 | 41 | > 100 | 92 | > 100 | 50 | 38 | > 100 | 32 | 12 | > 100 | GI50 [21]: 79 µM; GI50 [22]: > 100 µM; GI50 [23]: > 100 µM; GI50 [24]: > 100 µM; GI50 [25]: 16 µM; GI50 [26]: > 100 µM; GI50 [27]: > 100 µM; GI50 [28]: > 100 µM; GI50 [29]: > 100 µM; GI50 [30]: > 100 µM; GI50 [31]: > 100 µM; GI50 [32]: 17 µM; GI50 [33]: 48 µM; GI50 [34]: > 100 µM; GI50 [35]: 74 µM; GI50 [36]: > 100 µM; GI50 [37]: 28 µM; GI50 [38]: > 100 µM; GI50 [39]: > 100 µM
3 | CCCCCCCCCCCC[C@@H](O)[C@H]1CC[C@H]([C@H](O)CCCCCCCCCCCCc2cnc(N)nc2)O1 | > 100 | > 100 | > 100 | > 100 | > 100 | 9.4 | > 100 | > 100 | > 100 | 44 | 62 | > 100 | > 100 | 90 | > 100 | > 100 | > 100 | 27 | 58 | 56 | GI50 [21]: > 100 µM; GI50 [22]: > 100 µM; GI50 [23]: > 100 µM; GI50 [24]: 89 µM; GI50 [25]: 4.8 µM; GI50 [26]: > 100 µM; GI50 [27]: > 100 µM; GI50 [28]: > 100 µM; GI50 [29]: > 100 µM; GI50 [30]: > 100 µM; GI50 [31]: > 100 µM; GI50 [32]: 22 µM; GI50 [33]: 40 µM; GI50 [34]: 90 µM; GI50 [35]: 56 µM; GI50 [36]: > 100 µM; GI50 [37]: 36 µM; GI50 [38]: > 100 µM; GI50 [39]: > 100 µM
4 | CCCCCCCCCCCC[C@@H](O)[C@H]1CC[C@H]([C@H](O)CCCCCCCCCCCCC2=C[C@H](C)OC2=O)O1 [REL-SOLAMIN] | > 100 | > 100 | > 100 | > 100 | > 100 | 13 | > 100 | > 100 | > 100 | > 100 | > 100 | > 100 | > 100 | > 100 | > 100 | > 100 | > 100 | > 100 | 29 | 40 | GI50 [21]: 71 µM; GI50 [22]: > 100 µM; GI50 [23]: > 100 µM; GI50 [24]: > 100 µM; GI50 [25]: 4.3 µM; GI50 [26]: > 100 µM; GI50 [27]: > 100 µM; GI50 [28]: > 100 µM; GI50 [29]: > 100 µM; GI50 [30]: > 100 µM; GI50 [31]: > 100 µM; GI50 [32]: 58 µM; GI50 [33]: 14 µM; GI50 [34]: > 100 µM; GI50 [35]: > 100 µM; GI50 [36]: > 100 µM; GI50 [37]: 73 µM; GI50 [38]: > 100 µM; GI50 [39]: > 100 µM

Molecules with a lower GI50 [2], results first:

Row | GI50 [2] [µM] | GI50 [4] [µM] | GI50 [5] [µM] | GI50 [6] [µM] | GI50 [10] [µM] | GI50 [12] [µM] | GI50 [14] [µM] | GI50 [17] [µM] | GI50 [18] [µM] | GI50 [20] [µM] | Structure (SMILES) | GI50 [1] [µM] | GI50 [3] [µM] | GI50 [7] [µM] | GI50 [8] [µM] | GI50 [9] [µM] | GI50 [11] [µM] | GI50 [13] [µM] | GI50 [15] [µM] | GI50 [16] [µM] | GI50 [19] [µM] | further results
5 | 40 | 38 | 42 | 61 | 35 | 6.1 | 28 | 50 | > 100 | 22 | CCCCCCCCCCCC[C@@H](O)[C@H]1CC[C@H]([C@H](O)CCCCCCCCCCCCc2cncnc2)O1 | 28 | 52 | 28 | 29 | 17 | 22 | 32 | 28 | 16 | 25 | GI50 [21]: 34 µM; GI50 [22]: 49 µM; GI50 [23]: 34 µM; GI50 [24]: 28 µM; GI50 [25]: 4.1 µM; GI50 [26]: 56 µM; GI50 [27]: 39 µM; GI50 [28]: 40 µM; GI50 [29]: 90 µM; GI50 [30]: 29 µM; GI50 [31]: > 43 µM; GI50 [32]: 13 µM; GI50 [33]: 13 µM; GI50 [34]: 33 µM; GI50 [35]: 33 µM; GI50 [36]: 47 µM; GI50 [37]: 11 µM; GI50 [38]: > 100 µM; GI50 [39]: 36 µM
6 | 88 | 23 | 31 | > 100 | > 100 | 6.2 | 9.2 | > 100 | 32 | 52 | CCCCCCCCCCCC[C@@H](O)[C@H]1CC[C@H]([C@H](O)CCCCCCCCCCCCc2ccnn2C)O1 | 37 | > 100 | 49 | > 100 | 69 | 37 | > 100 | > 100 | > 100 | 24 | GI50 [21]: 27 µM; GI50 [22]: > 100 µM; GI50 [23]: 32 µM; GI50 [24]: 80 µM; GI50 [25]: 0.55 µM; GI50 [26]: > 100 µM; GI50 [27]: 65 µM; GI50 [28]: > 100 µM; GI50 [29]: > 100 µM; GI50 [30]: > 100 µM; GI50 [31]: > 100 µM; GI50 [32]: 3.8 µM; GI50 [33]: 4.4 µM; GI50 [34]: 76 µM; GI50 [35]: 77 µM; GI50 [36]: > 100 µM; GI50 [37]: 0.91 µM; GI50 [38]: > 100 µM; GI50 [39]: 71 µM
